Assay results: ChEMBL document CHEMBL1141509, “Development of pyridopyrimidines as potent Akt1/2 inhibitors” (Bioorg Med Chem Lett, 2008)

Legend:
[1] = target: T1, RAC-beta serine/threonine-protein kinase (Homo sapiens, UniProt P31751); assay: Inhibition of Akt2
[2] = target: T2, RAC-alpha serine/threonine-protein kinase (Homo sapiens, UniProt P31749); assay: Inhibition of Akt1
[3] = target: T1, RAC-beta serine/threonine-protein kinase; assay: Inhibition of Akt2 in human C33A cells by immunoprecipitation kinase assay; type: cell-based, C-33-A
[4] = target: T2, RAC-alpha serine/threonine-protein kinase; assay: Inhibition of human Akt1 in human C33A cells by immunoprecipitation kinase assay; type: cell-based, C-33-A
[5] = target: RAC-gamma serine/threonine-protein kinase (Homo sapiens, UniProt Q9Y243); assay: Inhibition of Akt3
[6] = Inhibition of PKA
[7] = Inhibition of PKC
[8] = target: T3, Serine/threonine-protein kinase Sgk1 (Homo sapiens, UniProt O00141); assay: Inhibition of SGK
T3 sequence (O00141 whole entry): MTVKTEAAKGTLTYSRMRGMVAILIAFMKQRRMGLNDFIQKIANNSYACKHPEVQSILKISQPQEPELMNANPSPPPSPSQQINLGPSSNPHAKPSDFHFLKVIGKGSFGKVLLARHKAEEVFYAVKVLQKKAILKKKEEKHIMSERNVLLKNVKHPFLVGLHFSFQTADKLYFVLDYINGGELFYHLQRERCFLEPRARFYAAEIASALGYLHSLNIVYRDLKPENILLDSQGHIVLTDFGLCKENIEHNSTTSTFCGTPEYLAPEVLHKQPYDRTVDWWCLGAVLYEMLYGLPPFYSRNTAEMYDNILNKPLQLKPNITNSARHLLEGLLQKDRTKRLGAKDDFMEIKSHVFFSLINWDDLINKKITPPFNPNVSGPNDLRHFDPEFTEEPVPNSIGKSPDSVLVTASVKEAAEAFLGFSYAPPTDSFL

T2 sequence (P31749 whole entry): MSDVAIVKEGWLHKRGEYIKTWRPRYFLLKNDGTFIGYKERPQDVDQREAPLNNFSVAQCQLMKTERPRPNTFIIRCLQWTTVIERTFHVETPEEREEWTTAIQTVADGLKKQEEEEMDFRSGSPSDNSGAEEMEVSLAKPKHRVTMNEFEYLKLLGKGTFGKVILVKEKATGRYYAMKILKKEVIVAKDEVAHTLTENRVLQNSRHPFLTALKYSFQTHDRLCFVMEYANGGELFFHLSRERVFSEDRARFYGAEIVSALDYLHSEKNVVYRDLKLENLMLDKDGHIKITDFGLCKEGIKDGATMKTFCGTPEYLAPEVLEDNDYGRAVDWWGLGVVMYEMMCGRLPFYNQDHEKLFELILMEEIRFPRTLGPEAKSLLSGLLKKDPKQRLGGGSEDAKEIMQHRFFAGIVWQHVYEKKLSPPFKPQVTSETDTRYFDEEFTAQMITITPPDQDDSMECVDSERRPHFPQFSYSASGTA
T1 sequence (P31751 whole entry): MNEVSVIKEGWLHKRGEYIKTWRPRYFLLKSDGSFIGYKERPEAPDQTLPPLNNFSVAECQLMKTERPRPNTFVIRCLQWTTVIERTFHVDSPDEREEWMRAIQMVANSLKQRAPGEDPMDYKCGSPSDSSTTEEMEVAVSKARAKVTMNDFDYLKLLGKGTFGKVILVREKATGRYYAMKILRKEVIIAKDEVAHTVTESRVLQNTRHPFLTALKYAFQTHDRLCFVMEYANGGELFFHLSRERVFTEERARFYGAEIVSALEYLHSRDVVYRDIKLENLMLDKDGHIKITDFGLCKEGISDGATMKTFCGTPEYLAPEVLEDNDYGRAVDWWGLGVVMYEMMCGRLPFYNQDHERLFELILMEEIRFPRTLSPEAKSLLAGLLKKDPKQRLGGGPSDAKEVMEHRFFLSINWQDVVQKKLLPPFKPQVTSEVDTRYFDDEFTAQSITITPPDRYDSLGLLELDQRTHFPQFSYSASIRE
Sequence of RAC-gamma serine/threonine-protein kinase (Q9Y243 whole entry): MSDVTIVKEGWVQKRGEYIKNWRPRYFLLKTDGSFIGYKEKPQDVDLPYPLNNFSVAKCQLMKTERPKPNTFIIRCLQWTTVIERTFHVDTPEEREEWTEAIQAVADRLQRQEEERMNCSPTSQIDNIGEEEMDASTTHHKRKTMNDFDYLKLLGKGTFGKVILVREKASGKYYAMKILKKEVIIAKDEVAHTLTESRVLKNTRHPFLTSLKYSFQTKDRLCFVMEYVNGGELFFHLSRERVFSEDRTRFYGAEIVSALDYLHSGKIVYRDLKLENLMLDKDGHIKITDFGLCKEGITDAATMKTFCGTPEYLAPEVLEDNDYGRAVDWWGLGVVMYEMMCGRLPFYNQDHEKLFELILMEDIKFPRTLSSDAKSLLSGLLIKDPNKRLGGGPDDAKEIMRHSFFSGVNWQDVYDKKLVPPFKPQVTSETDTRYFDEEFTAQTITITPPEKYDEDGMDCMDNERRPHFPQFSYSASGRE

SMILES	IC50 [1] [nM]	IC50 [2] [nM]	IC50 [3] [nM]	IC50 [4] [nM]	IC50 [5] [nM]	IC50 [6] [nM]	IC50 [7] [nM]	IC50 [8] [nM]
CSc1ncc2cc(-c3ccccc3)c(-c3ccc(CNCCCN4CCN(C)CC4)cc3)nc2n1	8920	765	–	–	–	–	–	–
CSc1ncc2cc(-c3ccccc3)c(-c3ccc(CNCCc4c[nH]cn4)cc3)nc2n1	1240	99	–	–	–	–	–	–
CSc1ncc2cc(-c3ccccc3)c(-c3ccc(CNCCc4nc[nH]n4)cc3)nc2n1	1710	139	–	–	–	–	–	–
CSc1ncc2cc(-c3ccccc3)c(-c3ccc(CNCCc4nccs4)cc3)nc2n1	1380	198	–	–	–	–	–	–
CSc1ncc2cc(-c3ccccc3)c(-c3ccc(CNCCCn4ccnc4)cc3)nc2n1	1510	137	–	–	–	–	–	–
CSc1ncc2cc(-c3ccccc3)c(-c3ccc(CN(C)CCc4cn[nH]c4)cc3)nc2n1	17500	1520	–	–	–	–	–	–
CSc1ncc2cc(-c3ccccc3)c(-c3ccc(CN4CCC(C(N)=O)CC4)cc3)nc2n1	928	29	9260	560	–	–	–	–
CCNC(=O)NC1CCN(Cc2ccc(-c3nc4nc(SC)ncc4cc3-c3ccccc3)cc2)CC1	1910	81	5300	795	–	–	–	–
CSc1ncc2cc(-c3ccccc3)c(-c3ccc(CN4CCC(C(=O)NCCC(N)=O)CC4)cc3)nc2n1	2110	91	–	–	–	–	–	–
CSc1ncc2cc(-c3ccccc3)c(-c3ccc(CN4CCC(NC(=O)CNC(C)=O)CC4)cc3)nc2n1	5130	286	–	–	–	–	–	–
CSc1ncc2cc(-c3ccccc3)c(-c3ccc(CNCCC(N)=O)cc3)nc2n1	1300	226	–	–	–	–	–	–
CSc1ncc2cc(-c3ccccc3)c(-c3ccc(CNCCc4cccnc4)cc3)nc2n1	1160	90	–	–	–	–	–	–
CSc1ncc2cc(-c3ccccc3)c(-c3ccc(CNCCc4nnc(C)[nH]4)cc3)nc2n1	1790	162	–	–	–	–	–	–
CSc1ncc2cc(-c3ccccc3)c(-c3ccc(CN4CCC(c5nc(-c6cccnc6)no5)CC4)cc3)nc2n1	1300	64	–	–	–	–	–	–

The next molecules have a lower IC50 [1] than those just listed; values first:

IC50 [1] [nM]	IC50 [2] [nM]	IC50 [3] [nM]	IC50 [4] [nM]	IC50 [5] [nM]	IC50 [6] [nM]	IC50 [7] [nM]	IC50 [8] [nM]	SMILES
529	46	–	–	–	–	–	–	CSc1ncc2cc(-c3ccccc3)c(-c3ccc(CNCCc4nnc(N)s4)cc3)nc2n1
494	63	–	–	–	–	–	–	CSc1ncc2cc(-c3ccccc3)c(-c3ccc(CNCCc4nnc(-c5ccccc5)[nH]4)cc3)nc2n1
301	9.7	1130	133	–	–	–	–	CSc1ncc2cc(-c3ccccc3)c(-c3ccc(CN4CCC(C(=O)Nc5ccncc5)CC4)cc3)nc2n1
267	8.5	1570	79	–	–	–	–	CSc1ncc2cc(-c3ccccc3)c(-c3ccc(CN4CCC(c5nnc(N)s5)CC4)cc3)nc2n1
239	–	1810	–	–	–	–	–	Nc1ncnc2nc(-c3ccc(CN4CCC(c5nc6ccc(F)cc6[nH]5)CC4)cc3)c(-c3ccccc3)cc12
107	23.6	2300	42.6	–	–	–	–	COc1ncc2cc(-c3ccccc3)c(-c3ccc(CN4CCC(c5nnc(-c6ccccn6)[nH]5)CC4)cc3)nc2n1
99	14	468	295	–	–	–	–	Nc1ncnc2nc(-c3ccc(CN4CCC(n5ncc6c(N)ncnc65)CC4)cc3)c(-c3ccccc3)cc12
94.4	6	899	20.3	2470	> 50000	> 50000	> 50000	CNc1ncc2cc(-c3ccccc3)c(-c3ccc(CN4CCC(c5nnc(-c6ccccn6)[nH]5)CC4)cc3)nc2n1
90	15	–	–	–	–	–	–	CSc1ncc2cc(-c3ccccc3)c(-c3ccc(CNCCC(=O)c4ccccc4N)cc3)nc2n1
59	24	586	100	–	–	–	–	N#Cc1ncc2cc(-c3ccccc3)c(-c3ccc(CN4CCC(c5nnc(-c6ccccn6)[nH]5)CC4)cc3)nc2n1
57	4.5	635	85	–	–	–	–	CSc1ncc2cc(-c3ccccc3)c(-c3ccc(CN4CCC(c5cc(-c6ccncc6)[nH]n5)CC4)cc3)nc2n1
44	4	828	60	–	–	–	–	CSc1ncc2cc(-c3ccccc3)c(-c3ccc(CN4CCC(n5ncc6c(N)ncnc65)CC4)cc3)nc2n1
35	6.2	3710	96.4	–	–	–	–	NC(=O)c1ncc2cc(-c3ccccc3)c(-c3ccc(CN4CCC(c5nnc(-c6ccccn6)[nH]5)CC4)cc3)nc2n1
26	3.8	589	9.3	–	–	–	–	CSc1ncc2cc(-c3ccccc3)c(-c3ccc(CN4CCC(c5nnc(-c6ccccn6)[nH]5)CC4)cc3)nc2n1
